Assay results reported in patent US12408662B2, “Hydrogen peroxide and peracid stabilization with molecules based on a pyridine carboxylic acid” (ECOLAB USA INC., priority 2018, dated 2025).

Assay: Stability of peroxyacetic acid compositions with lower acetic acid relative to hydrogen peroxide (Example 3, FIG. 3)
Assay type: physicochemical

- stabilization of peroxyacetic acid (in words): comparable to commonly used stabilizers
Compound: O=C(O)c1cccnc1 [Niacin, 3-pyridinecarboxylic acid]
